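Exposure lasted 48 hours, with cells grown in 96-well plates and compounds tested at five concentrations. GI50 is the concentration that inhibits growth by half.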 Activity calls are given as the source filed them. Cut-off read from the data, not from the text of the source: active = GI50 up to about 1.1 µM and inactive = higher.
Experiments:
Assay in all cases: inhibition of tumour cell growth, NCI panel, 48 h
SR = tested on: SR
NCI-H460 = tested on: NCI-H460
NCI-H226 = tested on: NCI-H226
TK-10 = tested on: TK-10
DU-145 = tested on: DU-145
U-251 = tested on: U-251
MCF7 = tested on: MCF7
CCRF-CEM = tested on: CCRF-CEM
SK-MEL-5 = tested on: SK-MEL-5
SF-268 = tested on: SF-268
NCI-H522 = tested on: NCI-H522
NCI/ADR-RES = tested on: NCI/ADR-RES
HCC 2998 = tested on: HCC 2998
UO-31 = tested on: UO-31
A498 = tested on: A498
OVCAR-3 = tested on: OVCAR-3
UACC-257 = tested on: UACC-257
T47D = tested on: T47D
HT-29 = tested on: HT-29
Hs-578T = tested on: Hs-578T
MOLT-4 = tested on: MOLT-4
K562 = tested on: K562
ACHN = tested on: ACHN
RPMI-8226 = tested on: RPMI-8226
MDA-N = tested on: MDA-N
786-0 = tested on: 786-0
SF-539 = tested on: SF-539
OVCAR-8 = tested on: OVCAR-8
OVCAR-4 = tested on: OVCAR-4
HCT-116 = tested on: HCT-116
Malme-3M = tested on: Malme-3M
SK-MEL-2 = tested on: SK-MEL-2
UACC-62 = tested on: UACC-62
SNB-75 = tested on: SNB-75
BT-549 = tested on: BT-549
RXF 393 = tested on: RXF 393
HL-60 = tested on: HL-60
M14 = tested on: M14
COLO 205 = tested on: COLO 205
OVCAR-5 = tested on: OVCAR-5
SK-OV-3 = tested on: SK-OV-3
MDA-MB-435 = tested on: MDA-MB-435
A549 = tested on: A549
HOP-62 = tested on: HOP-62
SN12C = tested on: SN12C
IGROV-1 = tested on: IGROV-1
PC-3 = tested on: PC-3
SF-295 = tested on: SF-295
NCI-H23 = tested on: NCI-H23
EKVX = tested on: EKVX
SK-MEL-28 = tested on: SK-MEL-28
KM12 = tested on: KM12
MDA-MB-231 = tested on: MDA-MB-231
CAKI-1 = tested on: CAKI-1
HOP-92 = tested on: HOP-92
HCT-15 = tested on: HCT-15
SW-620 = tested on: SW-620
SNB-19 = tested on: SNB-19
LOX IMVI = tested on: LOX IMVI

N#CC1=C(N)OC2=C(CCCc3ccccc32)C1c1ccc([N+](=O)[O-])cc1 (centres undefined)
GI50 (SR): 10.9 µM (inactive) | GI50 (NCI-H460): 17.7 µM (inactive) | GI50 (NCI-H226): 24.7 µM (inactive) | GI50 (TK-10): 28.8 µM (inactive) | GI50 (DU-145): 10.1 µM (inactive) | GI50 (U-251): 15.5 µM (inactive) | GI50 (MCF7): 16.7 µM (inactive) | GI50 (CCRF-CEM): 4.52 µM (inactive) | GI50 (SK-MEL-5): 14.3 µM (inactive) | GI50 (SF-268): 15.1 µM (inactive) | GI50 (NCI-H522): 8.22 µM (inactive) | GI50 (NCI/ADR-RES): 11.9 µM (inactive) | GI50 (HCC 2998): 13.6 µM (inactive) | GI50 (UO-31): 11.8 µM (inactive) | GI50 (A498): 12 µM (inactive) | GI50 (OVCAR-3): 13.5 µM (inactive) | GI50 (UACC-257): 14.8 µM (inactive) | GI50 (T47D): 8.18 µM (inactive) | GI50 (HT-29): 12.2 µM (inactive) | GI50 (Hs-578T): 36.5 µM (inactive) | GI50 (MOLT-4): 0.336 µM (active) | GI50 (K562): 2.07 µM (inactive) | GI50 (ACHN): 17.9 µM (inactive) | GI50 (RPMI-8226): 1.85 µM (inactive) | GI50 (MDA-N): 15.9 µM (inactive) | GI50 (786-0): 18.1 µM (inactive) | GI50 (SF-539): 19.2 µM (inactive) | GI50 (OVCAR-8): 17.9 µM (inactive) | GI50 (OVCAR-4): 15.8 µM (inactive) | GI50 (HCT-116): 12.8 µM (inactive) | GI50 (Malme-3M): 16.3 µM (inactive) | GI50 (SK-MEL-2): 17.9 µM (inactive) | GI50 (UACC-62): 11.2 µM (inactive) | GI50 (SNB-75): 55 µM (inactive) | GI50 (BT-549): 2.91 µM (inactive) | GI50 (RXF 393): 13.2 µM (inactive) | GI50 (HL-60): 5.93 µM (inactive) | GI50 (M14): 13.6 µM (inactive) | GI50 (COLO 205): 16.1 µM (inactive) | GI50 (OVCAR-5): 21.8 µM (inactive) | GI50 (SK-OV-3): 30.9 µM (inactive) | GI50 (MDA-MB-435): 15.9 µM (inactive) | GI50 (A549): 19 µM (inactive) | GI50 (HOP-62): 17.2 µM (inactive) | GI50 (SN12C): 15.1 µM (inactive) | GI50 (IGROV-1): 19.2 µM (inactive) | GI50 (PC-3): 17.1 µM (inactive) | GI50 (SF-295): 14.9 µM (inactive) | GI50 (NCI-H23): 15.2 µM (inactive) | GI50 (EKVX): 13.8 µM (inactive) | GI50 (SK-MEL-28): 15.8 µM (inactive) | GI50 (KM12): 16.1 µM (inactive) | GI50 (MDA-MB-231): 26.9 µM (inactive) | GI50 (CAKI-1): 29.6 µM (inactive) | GI50 (HOP-92): 19.1 µM (inactive) | GI50 (HCT-15): 12.2 µM | GI50 (SW-620): 13.6 µM (inactive) | GI50 (SNB-19): 17.3 µM (inactive) | GI50 (LOX IMVI): 19.1 µM (inactive)

From ChEMBL document CHEMBL1201862, “PubChem BioAssay data set” (2004)
